Several values for one entry are separate records, joined by “and”; a condition that tells them apart may be missing. Identical values can stand only once. Entries after “also recorded” stand apart in the source; their conditions may differ. Like-named read-outs stand apart in the source and are kept apart here.
Legend:
[1] = test system: human primary hepatocytes; experiment: Depletion of inhibitors in human primary hepatocyte suspension (LC-MS/MS); settings: primary human hepatocytes, 10 µM; for Parent compound retained at the 120-min sampling point: % of 0-min concentration, mean ± S.E.M.; for Sampling interval at which significant depletion was first observed: sampling 0-120 min
[2] = as above; settings: human, cryopreserved primary human hepatocytes in suspension; for CLint scaled at 10 µM: intrinsic clearance from primary human hepatocytes scaled to whole liver/body weight
rat CYP1A2 = test system: rat CYP1A2; design: method as in PMID 35448654; settings: cited from earlier work
[3] = test system: primary human hepatocytes; experiment: Cytotoxicity in primary human hepatocytes; assay type: cell-based; settings: 50 µM, 24 h
Method: Supplementary Figure S1. Cytotoxicity of MI-463 and MI-1900 at 50 µM for 24 h in primary human hepatocytes. DMSO was applied as solvent control at 0.5% for 24 h.

CYP1A2 [4] = biological target: T1, CYP1A2 (Homo sapiens, UniProt P05177); design: method as in PMID 34915414; settings: earlier study; cited from earlier work
T1 sequence (P05177 1-516): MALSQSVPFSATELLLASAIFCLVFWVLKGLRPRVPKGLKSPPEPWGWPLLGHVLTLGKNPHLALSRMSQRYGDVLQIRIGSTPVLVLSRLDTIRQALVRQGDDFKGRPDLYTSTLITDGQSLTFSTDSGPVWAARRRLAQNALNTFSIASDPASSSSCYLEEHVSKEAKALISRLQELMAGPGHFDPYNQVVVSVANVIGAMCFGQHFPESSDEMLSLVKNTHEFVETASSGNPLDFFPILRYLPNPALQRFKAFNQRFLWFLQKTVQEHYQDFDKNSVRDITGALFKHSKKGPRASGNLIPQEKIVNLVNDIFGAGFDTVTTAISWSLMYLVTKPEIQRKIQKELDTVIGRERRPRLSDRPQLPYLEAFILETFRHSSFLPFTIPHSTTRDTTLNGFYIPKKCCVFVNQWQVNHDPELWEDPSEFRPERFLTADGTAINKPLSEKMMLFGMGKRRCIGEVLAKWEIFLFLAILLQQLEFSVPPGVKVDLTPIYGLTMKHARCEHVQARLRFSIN

CYP2C9 [5] = biological target: T2, CYP2C9 (Homo sapiens, UniProt P11712); design: method as in PMID 34915414; settings: earlier study; cited from earlier work
T2 sequence (P11712 whole entry): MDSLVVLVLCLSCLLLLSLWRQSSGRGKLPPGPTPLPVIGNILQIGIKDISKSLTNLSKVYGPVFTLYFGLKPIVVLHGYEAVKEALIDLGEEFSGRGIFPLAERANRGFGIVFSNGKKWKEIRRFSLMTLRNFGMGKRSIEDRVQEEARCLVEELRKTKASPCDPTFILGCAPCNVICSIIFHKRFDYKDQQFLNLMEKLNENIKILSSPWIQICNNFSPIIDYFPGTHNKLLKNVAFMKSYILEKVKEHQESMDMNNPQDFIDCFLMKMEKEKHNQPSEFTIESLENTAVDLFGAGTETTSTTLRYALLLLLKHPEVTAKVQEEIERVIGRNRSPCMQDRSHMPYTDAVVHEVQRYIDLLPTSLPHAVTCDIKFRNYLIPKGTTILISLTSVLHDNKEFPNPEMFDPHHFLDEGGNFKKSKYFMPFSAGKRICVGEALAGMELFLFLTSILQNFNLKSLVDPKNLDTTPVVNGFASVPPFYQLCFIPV

matriptase = biological target: matriptase; design: method as in PMID 35635944; settings: cited from earlier work
[6] = test system: H9N2 IAV strain A/quail/Shantou/782/00; assay type: cell-based, influenza A virus; settings: MDCK-II cells
CYP3A4 [7] = biological target: T3, CYP3A4 (Homo sapiens, UniProt P08684); experiment: Fluorometric CYP3A4 activity assay in human hepatic microsomes; settings: for Effect on CYP3A4 enzyme activity: human liver microsomes, 10, 25 and 50 µM
T3 sequence (P08684 whole entry): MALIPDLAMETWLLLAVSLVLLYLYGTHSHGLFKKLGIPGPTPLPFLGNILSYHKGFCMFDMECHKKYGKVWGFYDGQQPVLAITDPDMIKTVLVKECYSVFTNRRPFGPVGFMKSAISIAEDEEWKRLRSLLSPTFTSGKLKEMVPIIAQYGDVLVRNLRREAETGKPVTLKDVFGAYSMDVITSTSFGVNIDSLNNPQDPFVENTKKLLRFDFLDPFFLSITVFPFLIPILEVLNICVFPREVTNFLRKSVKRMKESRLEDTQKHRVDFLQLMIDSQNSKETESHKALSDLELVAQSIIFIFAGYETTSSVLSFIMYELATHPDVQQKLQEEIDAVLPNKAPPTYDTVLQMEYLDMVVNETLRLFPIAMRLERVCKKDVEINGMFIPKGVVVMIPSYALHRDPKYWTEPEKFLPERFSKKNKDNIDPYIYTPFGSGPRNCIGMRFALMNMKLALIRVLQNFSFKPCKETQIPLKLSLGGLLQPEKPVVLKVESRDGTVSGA

[8] = test system: H9N2 IAV strain A/quail/Shantou/782/00; assay type: cell-based, influenza A virus; settings: MDCK-II cells, 24 h
CYP2C19 [9] = biological target: T4, CYP2C19 (Homo sapiens, UniProt P33261); design: method as in PMID 34915414; settings: earlier study; cited from earlier work
T4 sequence (P33261 whole entry): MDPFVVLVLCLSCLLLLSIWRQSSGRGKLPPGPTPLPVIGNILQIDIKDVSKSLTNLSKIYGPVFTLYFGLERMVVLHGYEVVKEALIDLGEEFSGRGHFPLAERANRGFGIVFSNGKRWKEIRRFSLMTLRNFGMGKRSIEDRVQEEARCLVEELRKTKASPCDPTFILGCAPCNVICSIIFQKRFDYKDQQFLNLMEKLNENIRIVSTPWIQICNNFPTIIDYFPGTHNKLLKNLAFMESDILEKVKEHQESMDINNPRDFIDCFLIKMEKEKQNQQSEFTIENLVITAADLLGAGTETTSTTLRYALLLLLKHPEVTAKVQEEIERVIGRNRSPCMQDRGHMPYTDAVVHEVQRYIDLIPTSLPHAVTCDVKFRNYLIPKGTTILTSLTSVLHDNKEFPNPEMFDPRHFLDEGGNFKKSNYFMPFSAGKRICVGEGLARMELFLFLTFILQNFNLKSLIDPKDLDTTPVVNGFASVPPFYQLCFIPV

A/Hamburg/5/09 (H1N1pdm) = assay type: cell-based, influenza A virus
[10] = Prediction of in vivo human PK parameters from hepatocyte clearance; assay type: in vitro ADME; settings: for Classification (extraction type) / Extraction ratio EH: predicted; for Predicted Cl, CLH: predicted from hepatocyte Clint, fu = 1
CYP2D6 [11] = biological target: T5, CYP2D6 (Homo sapiens, UniProt P10635); design: method as in PMID 34915414; settings: earlier study; cited from earlier work
T5 sequence (P10635 whole entry): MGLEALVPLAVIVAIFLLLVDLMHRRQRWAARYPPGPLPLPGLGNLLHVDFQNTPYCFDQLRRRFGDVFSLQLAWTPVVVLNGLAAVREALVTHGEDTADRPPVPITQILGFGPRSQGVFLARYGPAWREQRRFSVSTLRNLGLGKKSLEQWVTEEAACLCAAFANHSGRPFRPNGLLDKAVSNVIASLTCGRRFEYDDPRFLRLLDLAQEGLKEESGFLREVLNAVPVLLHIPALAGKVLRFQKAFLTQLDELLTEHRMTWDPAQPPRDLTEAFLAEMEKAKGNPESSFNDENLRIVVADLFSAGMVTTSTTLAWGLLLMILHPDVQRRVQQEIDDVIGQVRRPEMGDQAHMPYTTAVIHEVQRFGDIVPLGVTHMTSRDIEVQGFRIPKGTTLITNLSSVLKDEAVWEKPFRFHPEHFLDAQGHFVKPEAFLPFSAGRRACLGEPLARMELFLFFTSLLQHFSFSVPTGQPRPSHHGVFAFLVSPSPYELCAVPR

beagle dog CYP1A2 = test system: beagle dog CYP1A2; design: method as in PMID 35448654; settings: cited from earlier work
TMPRSS2 = biological target: TMPRSS2; design: method as in PMID 35635944; settings: cited from earlier work
monkey CYP1A2 = test system: monkey CYP1A2; design: method as in PMID 35448654; settings: cited from earlier work
[12] = test system: cynomolgus monkey hepatocytes; design: method as in PMID 31391268; settings: cited from earlier work
CYP3A4 [13] = biological target: T3, CYP3A4; design: method as in PMID 34915414; settings: fluorometric assays, earlier study; cited from earlier work
SARS-CoV-2 = test system: SARS-CoV-2; design: method as in PMID 32703818; settings: Calu-3 cells, 50 μM, 24 h p.i.; cited from earlier work
H9N2 = settings: MDCK-II cells, 20 μM and 50 μM; cited from earlier work
Calu-3 cells = test system: Calu-3 cells; design: method as in PMID 32703818; settings: 50 μM; cited from earlier work
H3N2 IAV = test system: H3N2 IAV; design: method as in PMID 23527573; settings: Calu-3 cells; cited from earlier work
H1N1 IAV = test system: H1N1 IAV; design: method as in PMID 23527573; settings: Calu-3 cells; cited from earlier work
CYP2C19 [14] = biological target: T4, CYP2C19; experiment: Fluorometric CYP2C19 activity assay in human hepatic microsomes; settings: human liver microsomes, protease inhibitors at 50 µM, 15 min 37 °C
CYP2C9 [15] = biological target: T2, CYP2C9; experiment: Fluorometric CYP2C9 activity assay in human hepatic microsomes; settings: human liver microsomes, protease inhibitors at 50 µM, 15 min 37 °C
CYP2D6 [16] = biological target: T5, CYP2D6; experiment: Fluorometric CYP2D6 activity assay in human hepatic microsomes; settings: human liver microsomes, protease inhibitors at 50 µM, 15 min 37 °C
[17] = test system: primary human hepatocytes; settings: 50 μM; cited from earlier work
H1N1 PR8 = test system: H1N1 PR8; design: method as in PMID 23365447; settings: Calu-3 cells; cited from earlier work
CYP1A2 [18] = biological target: T1, CYP1A2; experiment: Fluorometric CYP1A2 activity assay in human hepatic microsomes; settings: human liver microsomes, protease inhibitors at 50 µM, 15 min 37 °C

SMILES | Parent compound retained at the 120-min sampling point [1] | Sampling interval at which significant depletion was first observed [1] [min] | half-life at 10 µM [2] [h] | CLint scaled at 10 µM [2] [mL/min/kg] | Inhibition of rat CYP1A2 (rat CYP1A2) | Cytotoxicity in primary human hepatocytes [3] | Inhibition of CYP1A2 activity (CYP1A2 [4]) | Inhibition of CYP2C9 activity (CYP2C9 [5]) | Ki (matriptase) [nM] | Effect on CYP3A4 enzyme activity (CYP3A4 [7]) | H9N2 viral spread / formation of viral foci ([8]; MOI 0.01, 50 µM) | Inhibition of CYP2C19 activity (CYP2C19 [9]) | Classification (extraction type) [10] | Extraction ratio EH [10] | Predicted Cl, CLH [10] | Inhibition of CYP2D6 activity (CYP2D6 [11]) | Inhibition of beagle dog CYP1A2 (beagle dog CYP1A2) | Ki (TMPRSS2) [nM] | Inhibition of monkey CYP1A2 (monkey CYP1A2) | Treatment time after which significant conversion was seen [12] [min] | further results
COc1ccc(-c2cccc(S(=O)(=O)N[C@@H](Cc3cccc(C(=N)N)c3)C(=O)N3CCC(NC(=O)NC4CCCCC4)CC3)c2)c(OC)c1 [MI-463] | 66.7 ± 5.5% and 66.7% | 30 | 3.57 | 21.3 | significant inhibition | No significant differences in cell viabilities; also recorded: lack of cytotoxicity | No significant CYP inhibitory potential | No significant CYP inhibitory potential | 4 | significant inhibitory effect | fully prevented formation of viral foci; also recorded: fully preventing the formation of H9N2 viral foci | No significant CYP inhibitory potential | Intermediate | 0.37 | 7.60 | No significant CYP inhibitory potential | no significant inhibition | 3 | significant inhibition | 60 to 120 | Reduction of H9N2 viral titers compared to untreated controls ([6]; 20 µM, 24 h): approximately 1.4 log; Reduction of H9N2 viral titers compared to untreated controls ([6]; 20 µM, 48 h): 2.1 logs; Reduction of H9N2 viral titers compared to untreated controls ([6]; 50 µM, 24 h): ~1.8 log; Reduction of H9N2 viral titers compared to untreated controls ([6]; 50 µM, 48 h): 2.6 logs; Effect on CYP3A4 enzyme activity at the lowest applied concentration (CYP3A4 [7]; human liver microsomes, lowest applied concentration (10 µM)): potent inhibitors; H9N2 viral spread / formation of viral foci ([8]; MOI 0.01, 20 µM): marked reduction of viral spread; Reduction of H1N1 viral titers (A/Hamburg/5/09 (H1N1pdm)): 0.95–1.34 logs
COc1ccc(-c2cccc(S(=O)(=O)N[C@@H](Cc3cccc(C(=N)N)c3)C(=O)N3CCN(C(=O)NC4CCCCC4)CC3)c2)c(OC)c1 [MI-1900] | 48.6 ± 1.5% | 30 | 1.8 | 42.3 | significant inhibition | No significant differences in cell viabilities; also recorded: lack of cytotoxicity | No significant CYP inhibitory potential | No significant CYP inhibitory potential | 38 | – | strong suppression of viral spread | No significant CYP inhibitory potential | Intermediate | 0.45 | 9.23 | No significant CYP inhibitory potential | no significant inhibition | 79 | significant inhibition | 60 to 120 | Inhibition of CYP3A4 activity (CYP3A4 [13]): substantial inhibitory effects; Reduction of SARS-CoV-2 viral titers compared to control samples (SARS-CoV-2): 35 to 280 fold; Effect on H9N2 virus propagation (H9N2): strongly inhibiting its replication; Influence on Calu-3 cell viability (Calu-3 cells): without influencing Calu-3 cell viabilitiy significantly; Reduction of H1N1 titers (A/Hamburg/5/09 (H1N1pdm)): 1.62 logs
N=C(N)c1cccc(C[C@H](NS(=O)(=O)c2cccc(-c3ccc(Cl)cc3Cl)c2)C(=O)N2CCC(CCN)CC2)c1.O=C(O)C(F)(F)F.O=C(O)C(F)(F)F [MI-432, reference compound] | – | – | – | – | – | – | – | – | – | – | – | – | – | – | – | – | – | – | – | – | Inhibition of proteolytic activation and replication of H3N2 IAV (H3N2 IAV): notable efficacy; Reduction of SARS-CoV-2 viral titers compared to control samples (SARS-CoV-2): 75 fold; Influence on Calu-3 cell viability (Calu-3 cells): without influencing Calu-3 cell viabilitiy significantly; Inhibition of proteolytic activation and replication of H1N1 IAV (H1N1 IAV): notable efficacy
N=C(N)c1cccc(C[C@H](NS(=O)(=O)c2cccc(NC(=O)CCN)c2)C(=O)N2CCC(CCN)CC2)c1 [MI-21] | 16.6 ± 1.6% | 30 | 0.52 | 147 | – | – | – | – | – | did not cause significant reduction; also recorded: did not significantly suppress | – | – | Intermediate | 0.53 | 10.92 | – | – | – | – | – | Inhibition of CYP2C19 activity (CYP2C19 [14]): No significant CYP inhibitory potential; Inhibition of CYP2C9 activity (CYP2C9 [15]): No significant CYP inhibitory potential; Inhibition of CYP2D6 activity (CYP2D6 [16]): No significant CYP inhibitory potential; Cell toxicity [17]: no cell toxicity; Inhibition of replication of H1N1 PR8 (H1N1 PR8): promising inhibition; Inhibition of CYP1A2 activity (CYP1A2 [18]): No significant CYP inhibitory potential

— publication PMC11258351, “PK/PD investigation of antiviral host matriptase/TMPRSS2 inhibitors in cell models” (Scientific Reports, 2024)
